# From US20040171566A1, “Antisense modulation of p38 mitogen activated protein kinase expression” (priority 1999, published 2004)
# In the oligonucleotide strings, read from the 5' end, every base follows the letter of its sugar. An asterisk marks phosphorothioate; unmarked linkages are phosphodiester. Other units and linkages are bracketed, terminal groups are in braces. A string of capitals states the bases alone. e = 2'-O-(2-methoxyethyl) (MOE); [5mC] = 5-methylcytosine; d = 2'-deoxy (DNA)
# Tests used:
# rat p38α mRNA [1] = assay: Inhibition of rat p38α mRNA expression in A-10 cells, Northern blot; type: cell-based; settings: Rat A-10 cells, 200 nM oligonucleotide, 24 hours
# Method: Rat p38α antisense oligonucleotides were screened in Rat A-10 cells. A-10 cells (American Type Culture Collection, Manassas, Va.) were grown in high-glucose DMEM (Life Technologies, Gaithersburg, Md.) medium containing 10% fetal calf serum (FCS). Cells were treated with oligonucleotide as described in Example 2. Oligonucleotide concentration was 200 nM. mRNA was isolated 24 hours after time zero and quantitated by Northern blot as described in Example 2.
# human p38α mRNA = assay: Human p38α mRNA expression in T-24 cells; settings: for % P38α mRNA EXPRESSION: initial screen of human p38α oligonucleotides
# human p38β mRNA = assay: Human p38β mRNA expression in T-24 cells; settings: for % P38β mRNA EXPRESSION: initial screen of human p38α oligonucleotides
# mouse p38α mRNA [2] = assay: Mouse p38α mRNA levels in bEND.3 cells, quantitative real-time PCR; type: cell-based; parameters: % Inhib. mouse p38α: concentration or dose not given beside the values; settings: bEND.3 cells, mRNA by quantitative real-time PCR, average of two experiments
# Outline: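 Mouse bEND.3 cells, antisense oligonucleotide-treated; p38α mRNA measured by one-step real-time RT-PCR (RT 30 min at 48 °C, then 40 cycles) with a FAM/TAMRA probe. Levels normalized to GAPDH or RiboGreen total RNA, and percent inhibition derived from standard curves of untreated-control mRNA.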
# rat p38α mRNA [3] = assay: Rat p38α mRNA levels in NR-8383 cells, quantitative real-time PCR; type: cell-based; settings: 300 nM oligonucleotide with FuGENE 6, 24 hours, mRNA by quantitative real-time PCR, average of two experiments
# mouse p38α mRNA [4] = assay: Inhibition of mouse p38α mRNA expression in bEND.3 cells, Northern blot; type: cell-based; settings: mouse p38β antisense oligonucleotides, screened as in Example 4
# Method: bEND.3, a mouse endothelial cell line (gift of Dr. Werner Risau; see Montesano et al., Cell, 1990, 62, 435, and Stepkowski et al., J. Immunol., 1994, 153, 5336) were grown in high-glucose DMEM (Life Technologies, Gaithersburg, Md.) medium containing 10% fetal bovine serum (FBS) and 1% Penicillin/Streptomycinin. Cells were plated at approximately 2×10^5 cells per 100 mm dish. Within 48 hours of plating, the cells were washed with phosphate-buffered saline (Life Technologies). Then, Opti-MEM7 medium containing 3 μg/mL LIPOFECTIN^7 and an appropriate amount of oligonucleotide were added to the cells. As a control, cells were treated with LIPOFECTIN^7 without oligonucleotide under the same conditions and for the same times as the oligonucleotide-treated samples.
# After 4 hours at 37° C., the medium was replaced with high glucose DMEM medium containing 10% FBS and 1% Penicillin/Streptomycinin. The cells were typically allowed to recover overnight (about 18 to 24 hours) before RNA and/or protein assays were performed as described in Example 2. The p38α, p38β and G3PDH probes used were identical to those described in Example 2.
# Rat p38α antisense oligonucleotides were screened in bEND.3 cells for inhibition of p38α and p38β mRNA expression. The concentration of oligonucleotide used was 100 nM. Oligonucleotides 21844 (SEQ ID NO. 47), 21845 (SEQ ID NO. 48), 21872 (SEQ ID NO. 51), 21873 (SEQ ID NO. 52), 21875 (SEQ ID NO. 54), and 21876 (SEQ ID NO.
# Mouse p38β antisense sequences were screened in bEND.3 cells as described in Example 4.
# [5] = initial screen of human p38β oligonucleotides
# [6] = dose 50 nM, relative to control oligonucleotide = 100%
# [7] = dose 100 nM, relative to control oligonucleotide = 100%
# [8] = dose 200 nM, relative to control oligonucleotide = 100%
substance,measurement,setting,value
GoGoCoToAsCsCsAsTsGsAsGsTsGsAsGoAoAoGoA (antisense eGeGe[5mC]eTeA*d[5mC]*d[5mC]*dA*dT*dG*dA*dG*dT*dG*dA*eGeAeAeGeA) [ISIS 21879],% p38α mRNA EXPRESSION,rat p38α mRNA [1],11%
TACCAGCGCGTGGCCACATA (antisense eTeAe[5mC]e[5mC]eA*dG*d[5mC]*dG*d[5mC]*dG*dT*dG*dG*d[5mC]*d[5mC]*eAe[5mC]eAeTeA) [ISIS 107875],% p38α mRNA EXPRESSION,human p38α mRNA; [5],112%
same,% p38β mRNA Expression,human p38β mRNA; [6],82%
same,% p38β mRNA Expression,human p38β mRNA; [7],38%
same,% p38β mRNA Expression,human p38β mRNA; [8],40%
same,% p38β mRNA Expression,human p38β mRNA; [5],92%
TCAAAGGACTGATCATAAGG (eT*e[5mC]*eA*eA*eA*dG*dG*dA*d[5mC]*dT*dG*dA*dT*d[5mC]*dA*eT*eA*eA*eG*eG; antisense) [ISIS 100874],% p38α mRNA EXPRESSION,human p38α mRNA; dose 50 nM,47%
same,% p38α mRNA EXPRESSION,human p38α mRNA; dose 100 nM,27%
same,% p38α mRNA EXPRESSION,human p38α mRNA; dose 200 nM,13%
same,% P38α mRNA EXPRESSION,human p38α mRNA,42%
same,% P38β mRNA EXPRESSION,human p38β mRNA,76%
"TCCAACAGACCAATCACATT (phosphorothioate gapmer, further chemistry not given here) [ISIS 100864]",% P38α mRNA EXPRESSION,human p38α mRNA,66%
same,% P38β mRNA EXPRESSION,human p38β mRNA,70%
same,% Inhib. mouse p38α,mouse p38α mRNA [2],83%
same,% Inhib. rat p38α,rat p38α mRNA [3],57%
TGAATGTATATACTTTAGAC (eT*eG*eA*eA*eT*dG*dT*dA*dT*dA*dT*dA*d[5mC]*dT*dT*eT*eA*eG*eA*e[5mC]; antisense) [ISIS 100866],% P38α mRNA EXPRESSION,human p38α mRNA,55%
same,% P38β mRNA EXPRESSION,human p38β mRNA,65%
TGCCCTGGAGCAGCTCAGCC (antisense eTeGe[5mC]e[5mC]e[5mC]*dT*dG*dG*dA*dG*d[5mC]*dA*dG*d[5mC]*dT*e[5mC]eAeGe[5mC]e[5mC]) [ISIS 107878],% p38α mRNA EXPRESSION,human p38α mRNA; [5],112%
same,% p38β mRNA Expression,human p38β mRNA; [6],70%
same,% p38β mRNA Expression,human p38β mRNA; [7],43%
same,% p38β mRNA Expression,human p38β mRNA; [8],27%
same,% p38β mRNA Expression,human p38β mRNA; [5],54%
"TGTAAGCTTCTGACATTTCA (phosphorothioate gapmer, further chemistry not given here) [ISIS 100865]",% P38α mRNA EXPRESSION,human p38α mRNA,64%
same,% P38β mRNA EXPRESSION,human p38β mRNA,63%
"TTCTCTTATCTGAGTCCAAT (chimeric deoxy gapped, phosphorothioate, further chemistry not given here) [ISIS 100872]",% p38α mRNA EXPRESSION,human p38α mRNA; dose 50 nM,45%
same,% p38α mRNA EXPRESSION,human p38α mRNA; dose 100 nM,18%
same,% p38α mRNA EXPRESSION,human p38α mRNA; dose 200 nM,17%
same,% P38α mRNA EXPRESSION,human p38α mRNA,37%
same,% P38β mRNA EXPRESSION,human p38β mRNA,77%
ToAoCoCoAsCsCsGsTsGsTsGsGsCsCsAoCoAoToA (antisense eTeAe[5mC]e[5mC]eA*d[5mC]*d[5mC]*dG*dT*dG*dT*dG*dG*d[5mC]*d[5mC]*eAe[5mC]eAeTeA) [ISIS 100810],% p38α mRNA INHIBITION,mouse p38α mRNA [4],1%
